From patent publication US7655665B2, “Nitromethylene derivatives and their use” (East China University of Science and Technology, priority 2004, dated 2010)

What was measured:
Aphis craccivoral = experiment: Insecticidal activity against Aphis craccivoral by immersing (dipping aphids on bean sprout); format: in vivo; conditions: for mortality (%) (500 ppm) Aphis: 23° C.
Method: (§1) Test on the insecticidal activity of Compound Nos. 1-227
Aphis, which belongs to Homoptera and has a piercing-sucking mouthpart, is a common insect for agricultural plant. Aphis craccivoral was tested by the way of immersing.
Test method: exactly weighed various samples were independently added to N,N-dimethylformamide to form a 10 g/L stock solution. The mixture was diluted with 0.2 mL/L aqueous Triton X-100 solution to a concentration of 500 ug/mL. After stably sucking on bean sprout, the adult aphis without wings together with bean sprout was dipped into 500 ug/mL dilution, taken out after 5 seconds, and the excess dilution was sucked out with bibulous paper and the adult aphis without wings was incubated in clean vessel at a constant temperature of 23° C. Each concentration was repeated for 3 times and the control group contained 0.2 mL/L aqueous Triton X-100 solution. The number of killed aphis was counted after 24 hours to calculate the mortality.

Nilaparvata lugens = experiment: Insecticidal activity against Nilaparvata lugens (planthopper) by spraying; format: in vivo; conditions: for mortality (%) (500 ppm) Nilaparvata lugens: spraying 2 ml, counted after 24 hours; for mortality (%) (500 ppm) Nilaparvata-lugens: spraying 2 ml per tumbler, killed counted after 24 hours
Method: as §1
Planthopper, which belongs to Homoptera and has a piercing-sucking mouthpart, is a common insect for agricultural plant. Nilaparvata lugens was tested by the way of spraying.
Test method: the test compound was exactly formulated into a solution having a certain concentration and clean water was used as a blank control. Each process was repeated for 3 tumblers (3 times). 2 ml of solution was sprayed uniformly to each tumbler by a mini manual sprayer. 10 Nilaparvata lugens were introduced to every sink 6 hours before spraying. Three series of experiments were conducted. The number of killed Nilaparvata lugens was counted after 24 hours to calculate the mortality.

[1] = 500 ppm, immersing (dipped 5 seconds), counted after 24 hours
[2] = 500 ppm (500 ug/mL dilution), dipped 5 seconds, killed aphis counted after 24 hours

Row | Structure (SMILES) | mortality (%) (500 ppm) Aphis (Aphis craccivoral; [1]) | mortality (%) (500 ppm) Nilaparvata lugens (Nilaparvata lugens) | mortality (%) (500 ppm) Aphis (Aphis craccivoral; [2]) | mortality (%) (500 ppm) Nilaparvata-lugens (Nilaparvata lugens) | other results
1 | O=[N+]([O-])C1=C2N(Cc3cnc(Cl)s3)CCCN2C(OC(C(F)(F)F)C(F)(F)F)CC1 (centres unmarked) [Compound 92] | 6 | 5 |  |  | 
2 | O=C(OC1CCC([N+](=O)[O-])=C2N(Cc3cnc(Cl)s3)CCN21)c1ccccc1F (centres unmarked) [Compound 168] |  |  | 56 | 100 | 
3 | CCOC1CCC([N+](=O)[O-])=C2N(CC3CCOC3)CCCN21 (centres unmarked) [Compound 101] | 76 | 90 |  |  | 
4 | CCOCCOC1CCC([N+](=O)[O-])=C2N(Cc3cnc(Cl)s3)CCN21 (centres unmarked) [Compound 44] | 67 | 100 |  |  | 
5 | CC(C)OC1CCC([N+](=O)[O-])=C2N(Cc3cnc(Cl)s3)CCCN21 (centres unmarked) [Compound 91] | 69 | 71 |  |  | 
6 | O=C(OC1CCC([N+](=O)[O-])=C2N(Cc3cnc(Cl)s3)CCN21)c1cc(F)c(Cl)cc1Cl (centres unmarked) [Compound 164] | 59 | 78 |  |  | 
7 | CCCCOC1CCC([N+](=O)[O-])=C2N(CC3CCOC3)CCN21 (centres unmarked) [Compound 53] | 9 | 12 |  |  | 
8 | COCCOC1CCC([N+](=O)[O-])=C2N(CC3CCOC3)CCN21 (centres unmarked) [Compound 66] | 100 | 100 |  |  | 
9 | CC(C)COC1CCC([N+](=O)[O-])=C2N(CC3CCOC3)CCN21 (centres unmarked) [Compound 54] | 23 | 34 |  |  | 
10 | O=[N+]([O-])C1=C2N(Cc3ccc(Cl)nc3)CCN2C(O)CC1 (centres unmarked) [Compound 1] |  |  |  |  | mortality at 500 ppm (Aphis craccivoral; Aphis, 24 h, read-out: mortality (%) (500 ppm) Aphis): 96%; mortality at 500 ppm (Nilaparvata lugens; Nilaparvata lugens, 24 h, read-out: mortality (%) (500 ppm) Nilaparvata lugens): 100%
11 | CC(C)CSC1CCC([N+](=O)[O-])=C2N(Cc3ccc(Cl)nc3)CCN21 (centres unmarked) [Compound 140] | 67 | 78 |  |  | 
12 | CCOC1CCC([N+](=O)[O-])=C2N(CC3CCOC3)CCN21 (centres unmarked) [Compound 47] | 45 | 100 |  |  | 
13 | O=C(OC1CCC([N+](=O)[O-])=C2N(Cc3cnc(Cl)s3)CCN21)c1cc(F)c(F)c(F)c1F (centres unmarked) [Compound 167] |  |  | 12 | 4 | 
14 | O=[N+]([O-])C1=C2N(Cc3ccc(Cl)nc3)CCN2C(=NCCCl)CC1 [Compound 191] |  |  | 53 | 78 | 
15 | CCCN=C1CCC([N+](=O)[O-])=C2N(Cc3cnc(Cl)s3)CCN12 [Compound 217] |  |  | 23 | 100 | 
16 | CC1CC(O)N2CCN(Cc3cnc(Cl)s3)C2=C1[N+](=O)[O-] (centres unmarked) [Compound 70] | 33 | 12 |  |  | 
17 | CC(C)CCOC1CCC([N+](=O)[O-])=C2N(CC3CCOC3)CCN21 (centres unmarked) [Compound 60] | 3 | 5 |  |  | 
18 | CSC1CCC([N+](=O)[O-])=C2N(Cc3ccc(Cl)nc3)CCN21 (centres unmarked) [Compound 132] | 100 | 100 |  |  | 
19 | O=[N+]([O-])C1=C2N(CC3CCOC3)CCN2C(OCC(F)(F)F)CC1 (centres unmarked) [Compound 49] | 45 | 32 |  |  | 
20 | CCCCCN=C1CCC([N+](=O)[O-])=C2N(Cc3ccc(Cl)nc3)CCN12 [Compound 195] |  |  | 46 | 78 | 
21 | O=[N+]([O-])C1=C2N(Cc3ccc(Cl)nc3)CCN2C(Oc2ccccc2)CC1 (centres unmarked) [Compound 112] | 38 | 75 |  |  | 
22 | CC(C)N=C1CCC([N+](=O)[O-])=C2N(Cc3cnc(Cl)s3)CCN12 [Compound 219] |  |  | 34 | 45 | 
23 | CCCC(C)SC1CCC([N+](=O)[O-])=C2N(Cc3cnc(Cl)s3)CCN21 (centres unmarked) [Compound 184] |  |  | 12 | 35 | 
24 | CC(C)N=C1CCC([N+](=O)[O-])=C2N(Cc3ccc(Cl)nc3)CCN12 [Compound 193] |  |  | 93 | 98 | 
25 | O=C(OC1CCC([N+](=O)[O-])=C2N(Cc3cnc(Cl)s3)CCN21)c1ccc(Cl)c(Cl)c1 (centres unmarked) [Compound 170] |  |  | 2 | 0 | 
